Assay results reported in patent publication US9777015B2, “Useful thiophene derivatives in the treatment of diabetes” (METABRAIN RESEARCH, priority 2012, dated 2017).
Counter-ions that a name gives are not always drawn. Like-named read-outs stand apart in the source and are kept apart here.

Assays:
[1] = system: INS-1 cells; assay: Stimulation test of insulin secretion by INS-1 cells; format: cell-based; conditions: Rattus norvegicus, 1 h incubation, 3.5 mM glucose; for activity at 10 µM: INS1, compound at 10 μM, read-out: INS-1 % of ctrl @ 10 μM
Procedure: The different compounds were tested on an INS-1 beta-pancreatic line in order to evaluate their capability of potentializing the insulin secretion in response to glucose. Very briefly, the cells are cultivated in a culture medium, RPMI 1640 with 10 mM glucose containing 1 mM of sodium pyruvate, 50 μM of 2-mercaptoethanol, 2 mM of glutamine, 10 mM of HEPES, 100 IU/mL of penicillin, 100 μg/mL of streptomycin and 10% of inactivated fetal calf serum, as described by Asfari et al.. For the insulin secretion test, the INS-1 cells are sown and cultivated in 96-well plates. After 3 days of cultivation at 37° C. in a humid atmosphere (95% air/5% CO2), the medium is removed and the cells are incubated for 16 h in a medium containing 5 mM of glucose and 1% of inactivated fetal calf serum. On the day of the test, the cells are washed with a Krebs buffer (pH 7.4) containing 0.1% of bovine albumin and then pre-incubated for 30 min at 37° C. in this same buffer containing 2.8 mM of glucose. Finally, the cells are again washed with Krebs buffer and then incubated for 1 h in the buffer of the secretion test (Krebs, pH 7.4 containing 0.1% of bovine albumin and 3.5 mM of glucose and molecules to be evaluated). At the end of the test, the cell supernatant is recovered in order to measure therein the secreted insulin, by means of an ELISA kit using a rat anti-insulin antibody (ELISA Alpco Cat no. 80-INSRTH-E10). Each condition is tested in triplicate. The 3.5 mM glucose, the 10^−7M GLP-1 and the Forskoline 10^−7/IBMX 10^−5M mixtures are used as positive controls of the test. A compound stimulates the secretion of insulin if this factor is greater than or equal to 130% of the control for a given glucose dose.

[2] = system: hepatocytes isolated from Wistar rat liver; assay: Test of inhibition of hepatic production of glucose (isolated hepatocytes, 3 h or 20 h incubation); format: cell-based; conditions: for activity at 50 µM / activity at 100 µM: Rattus norvegicus, Hepatocyte, hepatic glucose production, rat hepatocytes; for activity at 50 µM: compound at 50 μM, read-out: HGP % of ctrl @ 50 μM; for activity at 100 µM: compound at 100 μM, read-out: HGP % of ctrl @ 100 μM
Procedure: The hepatocytes are isolated from Wistar rat liver having fasted for 24 h after perfusion of collagenase in the portal vein. The freshly isolated hepatocytes are sown in 6-well plates coated with collagen and containing an adhesion medium (Williams Medium). After adhesion, the medium is replaced with RPMI 1640 medium without any glucose, containing hydrocortisone (7.10^−5M) for a duration from 16 to 18 h. The next day, the glucose hepatic production test is conducted in a Krebs medium for 3 h. The basal conditions are cells incubated with only Krebs, the stimulated conditions are the cells placed in Krebs+lactate+pyruvate, the produced conditions are the cells exposed to chemical compounds in a Krebs/lactate/pyruvate medium. In the case when the compounds are dissolved in DMSO, all the conditions of the tests are met in the presence of a final concentration of 0.1% DMSO. The positive control of the test is the mercaptopicolinate known for its inhibitory action on hepatic production of glucose via the phosphoenolpyruvate carboxykinase. For short term treatments, the compounds are incubated for 3 h. For long term treatments, the compounds are incubated for 20 h at the moment when the hepatocytes are cultivated in RPMI and then added during the hepatic production test for 3 h. At the end of the 3 hours of incubation, the supernatant is recovered for measurement of glucose with a colorimetric method using glucose oxidase. The cells are lysed with a 0.1% NaOH aqueous solution in order to measure the amount of protein with the Lowry method. The results are expressed in mmols of glucose per mg of protein.

Row | SMILES | activity at 50 µM ([2]; 3 h, 3 h incubation) | activity at 100 µM ([2]; 3 h, 3 h incubation) | also measured
1 | COc1ccc(C(=O)c2cc(CC(=O)NCCN(C)C)c(-c3ccc(Cl)cc3)s2)cc1 [compound 89, 2-(2-(4-chlorophenyl)-5-(4-methoxybenzoyl)thiophen-3-yl)-N-(2-(dimethylamino)ethyl)acetamide] |  |  | activity at 10 µM [1]: 171%
2 | CCOC(=O)Cc1cc(C(=O)CCCCl)sc1-c1ccc(OC)cc1 [compound 37, ethyl 2-(5-(4-chlorobutanoyl)-2-(4-methoxyphenyl)thiophen-3-yl)acetate] |  |  | activity at 10 µM [1]: 157%; activity at 50 µM ([1]; INS1, compound at 50 μM, read-out: INS-1 % of ctrl @ 50 μM): 107%
3 | COc1ccc(C(=O)c2cc(CC(=O)NCCO)c(-c3ccc(Cl)cc3)s2)cc1 [compound 96, 2-(2-(4-chlorophenyl)-5-(4-methoxybenzoyl)thiophen-3-yl)-N-(2-hydroxyethyl)acetamide] |  |  | activity at 10 µM [1]: 177%
4 | COc1ccc(-c2sc(C(=O)CCc3ccccc3)cc2CC(=O)O)cc1 [compound 80, 2-(2-(4-methoxyphenyl)-5-(3-phenylpropanoyl)thiophen-3-yl)ace acetic acid] | 83% | 67% | 
5 | COCC(C(=O)O)c1cc(C(=O)c2ccc(OC)cc2)sc1-c1ccc(Cl)cc1 (stereo not shown) [compound 128, 2-(2-(4-chlorophenyl)-5-(4-methoxybenzoyl)thiophen-3-yl)-3-methoxypropanoic acid] |  |  | inhibition of hepatic production of glucose ([2]; 20 h incubation, with two doses): strongest inhibitions; activity at 50 µM ([2]; 20 h, 20 h incubation): 41%; activity at 100 µM ([2]; 20 h, 20 h incubation): 16%
6 | O=C(O)Cc1cc(C(=O)c2ccccn2)sc1-c1ccc(Cl)cc1 [compound 149, 2-(2-(4-chlorophenyl)-5-picolinoylthiophen-3-yl)acetic acid] |  |  | activity at 50 µM ([2]; 20 h, 20 h incubation): 47%; activity at 100 µM ([2]; 20 h, 20 h incubation): 13%
7 | COc1ccc(C(=O)c2cc(CC(N)=O)c(-c3ccc(Cl)cc3)s2)cc1 [compound 86, 2-(2-(4-chlorophenyl)-5-(4-methoxybenzoyl)thiophen-3-yl)acetamide] | 77% | 72% | 
8 | O=C(O)Cc1cc(C(=O)c2ccc(Cl)c(Cl)c2)sc1-c1ccc(Cl)cc1 [compound 57, 2-(2-(4-chlorophenyl)-5-(3,4-dichlorobenzoyl)thiophen-3-yl)acetic acid] | 77% | 51% | 
9 | COc1ccc(C(=O)c2cc(CC(=O)NCCN(C)C)c(-c3ccc(Cl)c(Cl)c3)s2)cc1 [compound 166, 2-[2-(3,4-dichlorophenyl)-5-(4-methoxybenzoyl)-3-thienyl]-N-(2-dimethylaminoethyl)acetamide] | 71% | 65% | 
10 | CCOC(=O)Cc1cc(C(=O)CCc2ccccc2)sc1-c1ccc(OC)cc1 [compound 38, ethyl 2-(2-(4-methoxyphenyl)-5-(3-phenylpropanoyl)thiophen-3-yl)acetate] | 74% | 70% | 
11 | N=C(N)NC(=O)Cc1cc(C(=O)c2ccco2)sc1-c1ccc(Cl)cc1 [compound 186, N-carbamimidoyl-2-[2-(4-chlorophenyl)-5-(furan-2-carbonyl)-3-thienyl]acetamide hydrochloride] | 69% | 60% | 
12 | COc1ccc(-c2sc(C(=O)C3CCCCC3)cc2CC(=O)O)cc1 [compound 46, 2-(5-(cyclohexanecarbonyl)-2-(4-methoxyphenyl)thiophen-3-yl)acetic acid] | 74% | 55% | 
13 | COc1cccc(C(=O)c2cc(CC(=O)O)c(-c3ccccc3)s2)c1 [compound 50, 2-(5-(3-methoxybenzoyl)-2-phenylthiophen-3-yl)acetic acid] | 97% | 75% | 
14 | CCOC(=O)Cc1cc(C(=O)Cc2ccccc2)sc1-c1ccc(Cl)cc1 [compound 16, ethyl 2-(2-(4-chlorophenyl)-5-(2-phenylacetyl)thiophen-3-yl)acetate] | 69% | 63% | 
15 | O=C(O)Cc1cc(C(=O)c2cccc(Cl)c2)sc1-c1ccccc1 [compound 49, 2-(5-(3-chlorobenzoyl)-2-phenyl-thiophen-3-yl)acetic acid] | 57% | 38% | inhibition of hepatic production of glucose ([2]; 3 h incubation, with two doses): strongest inhibitions
16 | COc1ccc(C(=O)c2cc(CC(=O)O)c(-c3ccc(Cl)c(Cl)c3)s2)cc1 [compound 81, 2-(2-(3,4-dichlorophenyl)-5-(4-methoxybenzoyl)thiophen-3-yl) acetic acid] | 106% | 54% | 
17 | CCOC(=O)Cc1cc(S(=O)(=O)c2ccc(OC)cc2)sc1-c1ccc(Cl)c(Cl)c1 [compound 174, ethyl 2-[2-(3,4-dichlorophenyl)-5-(4-methoxyphenyl)sulfonyl-3-thienyl]acetate] | 73% | 77% | 
18 | CCOC(=O)CN(C)C(=O)Cc1cc(C(=O)c2ccc(OC)cc2)sc1-c1ccccc1 [compound 87, ethyl 2-(2-(5-(4-methoxybenzoyl)-2-phenylthiophen-3-yl)-N-methylacetamido)acetate] | 77% | 73% | 
19 | COc1ccc(-c2sc(C(=O)c3ccc(F)cc3F)cc2CC(=O)O)cc1 [compound 65, 2-(5-(2,4-difluorobenzoyl)-2-(4-methoxyphenyl)thiophen-3-yl)acetic acid] | 93% | 66% | 
20 | O=C(O)Cc1cc(C(=O)CCc2ccccc2)sc1-c1ccc(Cl)cc1 [compound 63, 2-(2-(4-chlorophenyl)-5-(3-phenylpropanoyl)thiophen-3-yl) acetic acid] | 56% | 28% | inhibition of hepatic production of glucose ([2]; 3 h incubation, with two doses): strongest inhibitions
21 | COc1ccc(C(=O)c2cc(CC(=O)NC(=N)N)c(-c3ccc(Cl)c(Cl)c3)s2)cc1 [compound 184, N-carbamimidoyl-2-[2-(3,4-dichlorophenyl)-5-(4-methoxybenzoyl)-3-thienyl]acetamide hydrochloride] | 68% | 80% | 
22 | O=C(c1ccco1)c1cc(Cc2noc(=O)[nH]2)c(-c2ccc(Cl)cc2)s1 [compound 153, 3-((2-(4-chlorophenyl)-5-(furan-2-carbonyl)thiophen-3-yl)-methyl)-1,2,4-oxadiazol-5(2H)-one] | 95% | 38% | 
23 | CCONC(=O)Cc1cc(C(=O)c2ccco2)sc1-c1ccc(Cl)cc1 [compound 98, 2-(2-(4-chlorophenyl)-5-(furan-2-carbonyl)thiophen-3-yl)-N-ethoxyacetamide] | 88% | 74% | 
24 | COc1ccc(-c2sc(C(=O)c3ccccc3OC)cc2CC(=O)O)cc1 [compound 69, 2-(5-(2-methoxybenzoyl)-2-(4-methoxyphenyl)thiophen-3-yl)acetic acid] | 86% | 60% | 
25 | COC(=O)Cc1cc(C(=O)c2ccc(OC)cc2)sc1-c1ccccc1 [compound 5, methyl 2-(5-(4-methoxybenzoyl)-2-phenylthiophen-3-yl)acetate] | 68% | 50% | 
26 | O=C(O)Cc1cc(C(=O)c2ccco2)sc1-c1ccc(Cl)c(Cl)c1 [compound 159, 2-[2-(3,4-dichlorophenyl)-5-(furan-2-carbonyl)-3-thienyl]acetic acid] | 40% |  | inhibition of hepatic production of glucose ([2]; 3 h incubation, at the dose of 50 μM): strongest inhibitions
27 | O=C(O)Cc1cc(C(=O)c2ccco2)sc1-c1ccccc1 [compound 48, 2-(5-(furan-2-carbonyl)-2-phenyl-thiophen-3-yl)acetic acid] | 91% | 73% | 
